Experimental data as given in patent publication US10703761B2, “Bile acid receptor modulators and methods of use thereof” (City of Hope, priority 2016, dated 2020).

How the values were obtained:
FXR-RXR heterodimers = target: T1, FXR-RXR heterodimers (Homo sapiens, UniProt Q96RI1); experiment: Specific DNA binding by FXR-RXR heterodimers in vitro; assay type: biochemical; conditions: data not shown
T1 sequence (Q96RI1 1-486): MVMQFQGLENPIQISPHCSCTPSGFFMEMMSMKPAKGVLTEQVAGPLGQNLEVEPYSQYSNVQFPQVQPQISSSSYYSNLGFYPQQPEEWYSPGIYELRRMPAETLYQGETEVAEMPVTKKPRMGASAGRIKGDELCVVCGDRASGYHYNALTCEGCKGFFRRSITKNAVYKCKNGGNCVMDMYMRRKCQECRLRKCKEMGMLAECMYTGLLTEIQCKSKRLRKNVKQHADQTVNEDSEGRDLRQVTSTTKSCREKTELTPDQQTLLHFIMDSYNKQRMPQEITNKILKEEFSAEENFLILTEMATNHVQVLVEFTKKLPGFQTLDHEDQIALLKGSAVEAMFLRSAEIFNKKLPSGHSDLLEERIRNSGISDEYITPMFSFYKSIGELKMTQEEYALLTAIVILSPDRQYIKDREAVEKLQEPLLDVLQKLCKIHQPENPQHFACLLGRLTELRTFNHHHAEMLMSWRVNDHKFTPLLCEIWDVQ
T1 sequence (P19793 1-462 partner): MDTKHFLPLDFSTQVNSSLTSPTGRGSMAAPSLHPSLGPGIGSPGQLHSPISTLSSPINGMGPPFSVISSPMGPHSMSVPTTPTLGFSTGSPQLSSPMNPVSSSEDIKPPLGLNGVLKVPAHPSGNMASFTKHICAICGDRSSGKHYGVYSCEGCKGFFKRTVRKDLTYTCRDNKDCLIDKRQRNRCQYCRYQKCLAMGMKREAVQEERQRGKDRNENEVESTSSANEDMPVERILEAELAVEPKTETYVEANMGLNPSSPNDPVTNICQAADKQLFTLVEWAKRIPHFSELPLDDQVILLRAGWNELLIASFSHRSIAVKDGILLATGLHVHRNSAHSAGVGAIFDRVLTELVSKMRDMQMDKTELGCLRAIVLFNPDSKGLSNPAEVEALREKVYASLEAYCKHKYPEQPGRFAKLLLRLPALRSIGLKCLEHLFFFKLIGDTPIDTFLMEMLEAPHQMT

FXR = target: T2, FXR (Homo sapiens, UniProt Q96RI1); experiment: FXR luciferase reporter assay, transient transfection with a synthetic FXR responsive reporter plasmid in HEK293 cells; assay type: cell-based; conditions: compound alone, compared with GW4064
T2 construct: expressed in transfected cells; host or cells: HEK293 (transient)
T2 sequence (Q96RI1 1-486): T1 sequence (Q96RI1 1-486)
T2 sequence (P19793 1-462 partner): T1 sequence (P19793 1-462 partner)
Procedure: Effect of berberine derivatives and γ-aminobutyric acid derivative on FXR inhibition was initially assessed using transient transfections with a synthetic FXR responsive reporter plasmid. HEK 293 Cells were treated with vehicle alone or 100 μM CDCA with or without compounds, as indicated. Results are luciferase expression normalized using the β-gal internal control.
TGR5-reporting activity was evaluated by luciferase assay. Treatments were performed in quadruplicate and normalized with β-galactosidase. HEK293 cells were transfected with FXR and RXRα, and FXRE-containing luciferase construct. Cells were treated with 10 μM of indicated compounds; luciferase was measured and normalized with β-galactosidase.
To evaluate TGR5 activity of compounds, cells were transfected 100 ng pCRE-luc reporter along with pCMV-galactosidase (10 ng) as an internal control for normalization of transfection efficiency. Plasmids were complexed with […] of Fugene 6 reagent (Promega, Madison, Wis.) in OptiMEM (Invitrogen, Carlsbad, Calif.) and cells were transfected for 18 h. The following day, cells were treated with vehicle and appropriate ligand as indicated. Luciferase and β-galactosidase activities were assayed 6 h later using Luciferase Assay System (Promega) and Galacto-Star (Applied Biosystems, Foster City, Calif.) reagents, respectively, and a MLX luminometer (Dynex Technologies, Chantilly, Va.). To evaluate the FXR activity of compounds, HEK293 cells were transfected with 25 ng of farnesoid X receptor expression plasmid (pCMX-hFXR), 25 ng of retinoid X receptor expression plasmid (pCMXhRXR), 100 ng of reporter plasmid (pEcREx6-TK-Luc), and 10 ng of pCMV-b-galactosidase as an internal control in each well, using Fugene 6 reagent. Approximately 18 h after transfection, cells were incubated for 12 h with different concentrations of each.

**Q.** Which results are given for `COc1ccc2cc3[n+](cc2c1OC)CCc1cc2c(cc1-3)OCO2` [berberine]?
**A.** Specific DNA binding by FXR-RXR heterodimers (FXR-RXR heterodimers): did not affect specific DNA binding; FXR activity of compound alone (agonism) (FXR): failed to activate FXR; FXR activity of compound alone (agonism) (FXR; listed as Berberine): no effect on FXR activity
